Each block holds one compound with its values, some of them ahead of it.
What was measured:
NCI-H2228 [1] = assay: Antitumor activity against human NCI-H2228 cells harboring EML4-fused ALK variant xenografted in po dosed SCID Beige nude mouse assessed as tumor growth inhibition administered once daily for 14 days measured twice a week for 21 days during compound dosing; type: functional, organism-based; conditions: tested as the 2H-labelled form
[2] = Toxicity in SCID Beige nude mouse xenografted with human NCI-H2228 cells harboring EML4-fused ALK variant assessed as change in body weight at 30 mg/kg, po administered once daily for 14 days and measured twice per week for 14 days during compound dosing; type: organism-based; conditions: in vivo, 336 h
[3] = molecular target: ALK tyrosine kinase receptor (Homo sapiens, UniProt Q9UM73, F1174L); assay: Inhibition of ALK F1174L mutant (unknown origin)
[4] = Oral bioavailability in SCID Beige nude mouse xenografted with human NCI-H2228 cells harboring EML4-fused ALK variant at 3 to 30 mg/kg administered once daily for 14 days relative to control; type: ADME, organism-based; conditions: in vivo
[5] = Cmax in SCID Beige nude mouse xenografted with human NCI-H2228 cells harboring EML4-fused ALK variant at 3 to 30 mg/kg, po administered once daily for 14 days; type: ADME, organism-based; conditions: in vivo
NCI-H3122 = assay: Growth inhibition of human NCI-H3122 cells; type: functional, cell-based
[6] = molecular target: ALK tyrosine kinase receptor (Homo sapiens, UniProt Q9UM73, L1196M); assay: Inhibition of ALK L1196M mutant (unknown origin)
[7] = AUC (0 to t) in SCID Beige nude mouse xenografted with human NCI-H2228 cells harboring EML4-fused ALK variant at 3 to 30 mg/kg, po administered once daily for 14 days; type: ADME, organism-based; conditions: in vivo, 336 h
NCI-H2228 [8] = assay: Antitumor activity against human NCI-H2228 cells harboring EML4-fused ALK variant xenografted in SCID Beige nude mouse assessed as tumor growth inhibition at 30 mg/kg, po administered once daily for 14 days measured twice per week for 21 days during compound dosing relative to control; type: functional; conditions: read-out: TGI
NCI-H2228 [9] = assay: Growth inhibition of human NCI-H2228 cells; type: functional, cell-based
NCI-H2228 [10] = assay: Antitumor activity against human NCI-H2228 cells harboring EML4-fused ALK variant xenografted in SCID Beige nude mouse assessed as tumor growth inhibition at 10 mg/kg, po administered once daily for 14 days measured twice per week for 21 days during compound dosing relative to control; type: functional; conditions: read-out: TGI
[11] = Tmax in SCID Beige nude mouse xenografted with human NCI-H2228 cells harboring EML4-fused ALK variant at 3 to 30 mg/kg, po administered once daily for 14 days; type: ADME, organism-based; conditions: in vivo
[12] = molecular target: ALK tyrosine kinase receptor (Homo sapiens, UniProt Q9UM73); assay: Inhibition of wild-type ALK (unknown origin)
Chain of ALK tyrosine kinase receptor (Homo sapiens, UniProt Q9UM73) (Q9UM73 whole entry): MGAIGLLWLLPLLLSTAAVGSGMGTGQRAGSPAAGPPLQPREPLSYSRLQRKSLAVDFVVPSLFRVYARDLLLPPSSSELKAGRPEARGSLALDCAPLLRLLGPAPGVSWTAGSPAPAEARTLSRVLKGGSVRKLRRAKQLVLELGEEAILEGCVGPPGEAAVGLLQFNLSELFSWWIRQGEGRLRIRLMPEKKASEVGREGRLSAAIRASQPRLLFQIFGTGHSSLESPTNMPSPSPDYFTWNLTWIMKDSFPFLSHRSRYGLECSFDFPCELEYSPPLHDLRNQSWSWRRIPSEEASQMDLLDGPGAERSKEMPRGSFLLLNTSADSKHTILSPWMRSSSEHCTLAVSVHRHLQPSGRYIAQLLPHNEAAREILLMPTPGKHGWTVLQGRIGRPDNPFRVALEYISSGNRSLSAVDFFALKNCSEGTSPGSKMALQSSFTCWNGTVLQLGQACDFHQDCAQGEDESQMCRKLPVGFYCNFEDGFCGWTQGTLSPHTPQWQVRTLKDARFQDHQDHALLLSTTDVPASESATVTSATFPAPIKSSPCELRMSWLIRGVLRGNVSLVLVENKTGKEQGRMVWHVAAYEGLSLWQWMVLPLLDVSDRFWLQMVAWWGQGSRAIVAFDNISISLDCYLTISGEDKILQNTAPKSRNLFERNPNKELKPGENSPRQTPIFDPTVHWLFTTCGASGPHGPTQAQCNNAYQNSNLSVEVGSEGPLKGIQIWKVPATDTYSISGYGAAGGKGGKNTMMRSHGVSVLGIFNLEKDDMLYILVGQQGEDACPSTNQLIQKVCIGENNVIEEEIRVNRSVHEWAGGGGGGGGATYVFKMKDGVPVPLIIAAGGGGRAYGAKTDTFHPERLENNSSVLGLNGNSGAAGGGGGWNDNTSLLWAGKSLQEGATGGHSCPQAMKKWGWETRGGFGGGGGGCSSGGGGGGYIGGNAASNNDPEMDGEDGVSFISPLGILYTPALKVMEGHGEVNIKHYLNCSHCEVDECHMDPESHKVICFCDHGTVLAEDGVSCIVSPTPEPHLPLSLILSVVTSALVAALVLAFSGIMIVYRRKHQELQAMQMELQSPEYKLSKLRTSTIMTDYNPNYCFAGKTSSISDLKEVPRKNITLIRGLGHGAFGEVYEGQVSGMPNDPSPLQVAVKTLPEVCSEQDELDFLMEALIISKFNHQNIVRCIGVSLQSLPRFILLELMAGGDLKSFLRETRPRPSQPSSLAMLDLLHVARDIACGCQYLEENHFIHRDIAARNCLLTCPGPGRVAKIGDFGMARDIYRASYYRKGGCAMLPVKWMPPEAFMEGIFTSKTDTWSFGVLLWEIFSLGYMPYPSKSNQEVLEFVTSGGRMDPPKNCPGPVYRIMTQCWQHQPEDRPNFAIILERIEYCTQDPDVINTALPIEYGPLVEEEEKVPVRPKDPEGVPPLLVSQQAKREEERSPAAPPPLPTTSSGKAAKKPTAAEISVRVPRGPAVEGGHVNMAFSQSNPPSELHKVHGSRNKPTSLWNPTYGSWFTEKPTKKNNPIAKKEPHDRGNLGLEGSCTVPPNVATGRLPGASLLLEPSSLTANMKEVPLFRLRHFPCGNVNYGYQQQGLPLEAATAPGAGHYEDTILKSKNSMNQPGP

Chain of ALK tyrosine kinase receptor (Homo sapiens, UniProt Q9UM73, F1174L) (Q9UM73 19-1620 F1174L limits assumed): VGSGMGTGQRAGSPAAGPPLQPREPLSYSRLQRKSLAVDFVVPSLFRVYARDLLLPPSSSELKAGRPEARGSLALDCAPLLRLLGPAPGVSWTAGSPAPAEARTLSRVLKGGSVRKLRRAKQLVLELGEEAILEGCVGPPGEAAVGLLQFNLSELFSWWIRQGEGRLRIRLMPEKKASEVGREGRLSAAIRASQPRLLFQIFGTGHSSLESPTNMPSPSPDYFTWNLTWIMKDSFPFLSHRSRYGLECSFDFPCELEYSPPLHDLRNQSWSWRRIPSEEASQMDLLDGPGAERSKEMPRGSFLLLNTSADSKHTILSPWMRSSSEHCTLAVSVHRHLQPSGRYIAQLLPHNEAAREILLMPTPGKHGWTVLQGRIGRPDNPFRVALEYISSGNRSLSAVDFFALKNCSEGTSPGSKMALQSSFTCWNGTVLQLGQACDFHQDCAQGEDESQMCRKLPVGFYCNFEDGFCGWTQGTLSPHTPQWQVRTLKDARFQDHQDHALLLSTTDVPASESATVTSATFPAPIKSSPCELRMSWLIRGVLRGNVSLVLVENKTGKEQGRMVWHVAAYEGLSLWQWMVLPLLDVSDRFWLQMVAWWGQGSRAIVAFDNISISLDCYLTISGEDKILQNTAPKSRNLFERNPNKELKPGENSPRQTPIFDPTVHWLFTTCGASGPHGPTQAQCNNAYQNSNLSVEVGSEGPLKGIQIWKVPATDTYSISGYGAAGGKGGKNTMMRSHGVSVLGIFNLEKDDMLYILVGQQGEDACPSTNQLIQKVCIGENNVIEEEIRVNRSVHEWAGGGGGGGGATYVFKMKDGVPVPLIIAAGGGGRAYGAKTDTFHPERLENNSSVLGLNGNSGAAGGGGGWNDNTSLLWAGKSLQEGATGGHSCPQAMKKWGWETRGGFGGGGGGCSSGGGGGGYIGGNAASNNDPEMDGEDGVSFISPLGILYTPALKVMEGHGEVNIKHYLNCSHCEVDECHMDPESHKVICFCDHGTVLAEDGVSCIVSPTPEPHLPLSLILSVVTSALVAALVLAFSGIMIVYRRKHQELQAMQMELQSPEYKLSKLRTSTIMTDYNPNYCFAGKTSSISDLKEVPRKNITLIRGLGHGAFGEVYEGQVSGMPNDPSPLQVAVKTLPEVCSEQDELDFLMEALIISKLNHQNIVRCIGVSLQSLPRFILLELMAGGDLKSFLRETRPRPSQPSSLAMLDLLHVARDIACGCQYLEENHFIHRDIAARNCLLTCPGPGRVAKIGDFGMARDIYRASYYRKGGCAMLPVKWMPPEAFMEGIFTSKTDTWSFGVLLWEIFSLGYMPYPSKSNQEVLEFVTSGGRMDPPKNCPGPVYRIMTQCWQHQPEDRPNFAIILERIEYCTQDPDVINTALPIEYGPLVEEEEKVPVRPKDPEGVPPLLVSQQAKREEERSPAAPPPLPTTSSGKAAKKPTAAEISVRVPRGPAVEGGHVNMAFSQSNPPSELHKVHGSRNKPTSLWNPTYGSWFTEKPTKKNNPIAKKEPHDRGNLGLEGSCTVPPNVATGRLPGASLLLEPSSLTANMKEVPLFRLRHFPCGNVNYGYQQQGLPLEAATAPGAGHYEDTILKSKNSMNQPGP
Chain of ALK tyrosine kinase receptor (Homo sapiens, UniProt Q9UM73, L1196M) (Q9UM73 19-1620 L1196M limits assumed): as the sequence (Q9UM73 19-1620 F1174L limits assumed) above, with L1156F, L1178M counted along it

SMILES: COc1cc(C2CCNCC2)c(C)cc1Nc1ncc(Cl)c(Nc2ccccc2S(=O)(=O)C(C)C)n1
TGI (NCI-H2228 [1]): Dose-dependent effect

SMILES: [2H]c1ccc(Nc2nc(Nc3cc(C)c(C4CCNCC4)cc3OC(C)C)ncc2Cl)c(S(=O)(=O)C(C)C)c1
IC50 (NCI-H3122): 28.5 nM
IC50 (NCI-H2228 [9]): 97 nM

SMILES: [2H]C([2H])([2H])C([2H])(Oc1cc(C2CCNCC2)c(C)cc1Nc1ncc(Cl)c(Nc2ccccc2S(=O)(=O)C(C)C)n1)C([2H])([2H])[2H]
IC50 (NCI-H3122): 28.4 nM
IC50 (NCI-H2228 [9]): 111 nM

Second part, led by results:

IC50 [3]: 36.8 nM
bioavailability [4]: 60%
Cmax [5]: 508 ng/mL
IC50 (NCI-H3122): 4 nM
IC50 [6]: 18.7 nM
AUCt [7]: 6980 ng·h/mL
IC50 (NCI-H2228 [9]): 41.3 nM
Tmax [11]: 6 to 8 h
IC50 [12]: 71 nM
SMILES: [2H]C([2H])([2H])Oc1cc(C2CCNCC2)c(C)cc1Nc1ncc(Cl)c(Nc2ccccc2S(=O)(=O)C(C)C)n1
Activity [2]: Non-Toxic
inhibition in vivo at 30 mg/kg (NCI-H2228 [8]): 77%
inhibition in vivo at 10 mg/kg (NCI-H2228 [10]): 53%

IC50 (NCI-H3122): 24.7 nM
IC50 (NCI-H2228 [9]): 98.5 nM
SMILES: [2H]c1c(C)c(C2CCNCC2)cc(OC(C)C)c1Nc1ncc(Cl)c(Nc2ccccc2S(=O)(=O)C(C)C)n1

IC50 [3]: 51.6 nM
IC50 (NCI-H3122): 6 nM
IC50 [6]: 37 nM
IC50 (NCI-H2228 [9]): 45.5 nM
IC50 [12]: 106 nM
SMILES: [2H]C([2H])([2H])C([2H])([2H])Oc1cc(C2CCNCC2)c(C)cc1Nc1ncc(Cl)c(Nc2ccccc2S(=O)(=O)C(C)C)n1

IC50 (NCI-H3122): 27.2 nM
IC50 (NCI-H2228 [9]): 97 nM
SMILES: Cc1cc(Nc2ncc(Cl)c(Nc3ccccc3S(=O)(=O)C(C)C)n2)c(OC(C)C)cc1C1CCNCC1 [CERITINIB]
inhibition in vivo at 10 mg/kg (NCI-H2228 [10]): 26%

From ChEMBL document CHEMBL4387718, “Design, synthesis of orally bioavailable novel anaplastic lymphoma kinase (ALK) inhibitor diphenylaminopyrimidine analogs and efficacy study on NCI-H2228 xenografts mice model” (Bioorg Med Chem Lett, 2019)
